Measured values reported in ChEMBL document CHEMBL1128027, “Total synthesis of a novel benz[A]anthracycline analog of the antitumor agent 4-demethoxydaunorubicin” (Bioorg Med Chem Lett, 1994).

Test system: CCRF-CEM
Test: Cytotoxicity tested in vitro against T-lymphoid leukemic cell line
Assay type: functional, cell-based
Settings: Homo sapiens

CC(=O)[C@@]1(O)Cc2c3c(c(O)c(O)c2[C@H](OC2CC(N)C(O)C(C)O2)C1)C(=O)c1ccccc1C3=O (stereo partly drawn) gave an IC50 of 1000 nM.

Compound CC(=O)[C@]1(O)Cc2c3c(c(O)c(O)c2[C@@H](OC2CC(N)C(O)C(C)O2)C1)C(=O)c1ccccc1C3=O (stereo partly drawn) has an IC50 of 1000 nM.

COc1cccc2c1C(=O)c1c(O)c3c(c(O)c1C2=O)C[C@@](O)(C(=O)CO)C[C@@H]3O[C@H]1C[C@H](N)[C@H](O)[C@H](C)O1 [DOXORUBICIN] was tested, and the IC50 was 20 nM.
